A word on the IC50: it is the concentration that gives 50% inhibition.

One test deals with MV-4-11 cells. Nature of the test: Cell Viability Assay in MV-4-11 Cells. The format is cell-based. The conditions noted are these: Homo sapiens, MV4-11, 72 h, MV-4-11 cells, 72 h, Cell-Titer Glo; read-out: IC50. The gist of the method: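 Luminescent ATP read-out (CellTiter-Glo) after 72 h compound treatment of MV-4-11 leukaemia cells (7,000 per well, IMDM plus 10% FBS). Values expressed relative to DMSO control and derived by four-parameter non-linear regression.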
Consider `COc1ccc(C)c2c(N(C(=O)c3ccc(-c4nnc(C)s4)nc3)[C@@H]3CCCNC3)nccc12` [Example 902, N-(5-methoxy-8-methyl-1-isoquinolyl)-6-(5-methyl-1,3,4-thiadiazol-2-yl)-N-[(3R)-3-piperidyl] pyridine-3-carboxamide], for which the IC50 is 383 nM.

Turning to `COCCc1nnc(-c2ccc(C(=O)N(c3nccc4cc(C)cc(C)c34)[C@@H]3CCCNC3)cn2)s1` [Example 903, N-(6,8-dimethyl-1-isoquinolyl)-6-[5-(2-methoxyethyl)-1,3,4-thiadiazol-2-yl]-N-[(3R)-3-piperidyl]pyridine-3-carboxamide], the IC50 was found to be 45 nM.

For the molecule `COCCCc1nnc(-c2ccc(C(=O)N(c3nccc4cc(C)cc(C)c34)[C@@H]3CCCNC3)cn2)s1` [Example 904, N-(6,8-dimethyl-1-isoquinolyl)-6-[5-(3-methoxypropyl)-1,3,4-thiadiazol-2-yl]-N-[(3R)-3-piperidyl]pyridine-3-carboxamide], the IC50 came to 75 nM.

As for `[2H]C([2H])([2H])c1nnc(-c2ccc(C(=O)N(c3nccc4cc(OC)cc(C)c34)[C@@H]3CCCNC3)cn2)s1` [Example 905, N-(6-methoxy-8-methyl-1-isoquinolyl)-N-[(3R)-3-piperidyl]-6-[5-(trideuteriomethyl)-1,3,4-thiadiazol-2-yl]pyridine-3-carboxamide], the IC50 stood at 62 nM.

Turning to `[2H]C([2H])([2H])c1nnc(-c2ccc(C(=O)N(c3nccc4cc(C)cc(C)c34)[C@@H]3CCCNC3)c(F)c2)s1` [Example 906, N-(6,8-dimethyl-1-isoquinolyl)-2-fluoro-N-[(3R)-3-piperidyl]-4-[5-(trideuteriomethyl)-1,3,4-thiadiazol-2-yl]benzamide], the IC50 amounted to 48 nM.

Consider `[2H]C([2H])([2H])c1nnc(-c2ccc(C(=O)N(c3nccc4cc(C)cc(C)c34)[C@@H]3CCCNC3)cc2)s1` [Example 907, N-(6,8-dimethyl-1-isoquinolyl)-N-[(3R)-3-piperidyl]-4-[5-(trideuteriomethyl)-1,3,4-thiadiazol-2-yl]benzamide], for which the IC50 worked out at 130 nM.

Consider `[2H]C([2H])([2H])c1nnc(-c2ccc(C(=O)N(c3nccc4cc(OC)cc(C)c34)[C@@H]3CCCNC3)cc2)s1` [Example 908, N-(6-methoxy-8-methyl-1-isoquinolyl)-N-[(3R)-3-piperidyl]-4-[5-(trideuteriomethyl)-1,3,4-thiadiazol-2-yl]benzamide], for which the IC50 worked out at 77 nM.

For the molecule `[2H]C([2H])([2H])Oc1cc(C)c2c(N(C(=O)c3ccc(-c4nnc(C)s4)nc3)[C@@H]3CCCNC3)nccc2c1` [Example 909], the half-inhibitory concentration (IC50) was determined as 62 nM.

Consider `COCCc1nnc(-c2ccc(C(=O)N(c3nccc4cccc(C)c34)[C@@H]3CCCNC3)cn2)s1` [Example 910, (R)-6-(5-(2-methoxyethyl)-1,3,4-thiadiazol-2-yl)-N-(8-methylisoquinolin-1-yl)-N-(piperidin-3-yl)nicotinamide], for which the IC50 was 97 nM.

`COc1cc(C)c2c(N(C(=O)c3ccc(-c4nnc(C)s4)nc3)[C@@H]3CCCNC3)nccc2c1F` [Example 911, N-(5-fluoro-6-methoxy-8-methyl-1-isoquinolyl)-6-(5-methyl-1,3,4-thiadiazol-2-yl)-N-[(3R)-3-piperidyl]pyridine-3-carboxamide]: the IC50 is 140 nM.

For the molecule `Cc1csc2ccnc(N(C(=O)c3ccc(-c4nnc(CCC#N)s4)nc3)[C@@H]3CCCNC3)c12` [Example 912, 6-[5-(2-cyanoethyl)-1,3,4-thiadiazol-2-yl]-N-(3-methylthieno[3,2-c]pyridin-4-yl)-N-[(3R)-3-piperidyl]pyridine-3-carboxamide], the IC50 stood at 170 nM.

Consider `COCCc1nnc(-c2ccc(C(=O)N(c3nccc4scc(C)c34)[C@@H]3CCCNC3)cn2)s1` [Example 913, 6-[5-(2-methoxyethyl)-1,3,4-thiadiazol-2-yl]-N-(3-methylthieno[3,2-c]pyridin-4-yl)-N-[(3R)-3-piperidyl]pyridine-3-carboxamide], for which the IC50 came out at 130 nM.

Consider `COc1cc(C)c2c(N(C(=O)c3ccc(-c4nc(C)no4)cc3)[C@@H]3CCCNC3)nccc2c1` [Example 914, N-(6-methoxy-8-methyl-1-isoquinolyl)-4-(3-methyl-1,2,4-oxadiazol-5-yl)-N-[(3R)-3-piperidyl] benzamide], for which the IC50 is 130 nM.

For `Cc1cc(C)c2c(N(C(=O)c3ccc(-c4nc(C)no4)cc3)[C@@H]3CCCNC3)nccc2c1` [Example 915, N-(6,8-dimethyl-1-isoquinolyl)-4-(3-methyl-1,2,4-oxadiazol-5-yl)-N-[(3R)-3-piperidyl] benzamide], the IC50 turned out to be 86 nM.

In the case of `Cc1cc(C)c2c(N(C(=O)c3ccc(-c4nc(C)no4)nc3)[C@@H]3CCCNC3)nccc2c1` [Example 916, N-(6,8-dimethyl-1-isoquinolyl)-6-(3-methyl-1,2,4-oxadiazol-5-yl)-N-[(3R)-3-piperidyl]pyridine-3-carboxamide], the half-maximal inhibitory concentration (IC50) amounted to 570 nM.

Turning to `Cc1nnc(-c2ccc(C(=O)N(c3nccc4cc(Cl)cc(C)c34)[C@@H]3CCCNC3)cn2)o1` [Example 917, N-(6-chloro-8-methyl-1-isoquinolyl)-6-(5-methyl-1,3,4-oxadiazol-2-yl)-N-[(3R)-3-piperidyl]pyridine-3-carboxamide], the IC50 was 110 nM.

`Cc1nnc(-c2ccc(C(=O)N(c3nccc4cc(F)cc(C)c34)[C@@H]3CCCNC3)cn2)o1` [Example 918, N-(6-fluoro-8-methyl-1-isoquinolyl)-6-(5-methyl-1,3,4-oxadiazol-2-yl)-N-[(3R)-3-piperidyl]pyridine-3-carboxamide]: the IC50 is 170 nM.

With `Cc1nnc(-c2ccc(C(=O)N(c3nccc4scc(C)c34)[C@@H]3CCCNC3)cn2)o1` [Example 919, 6-(5-methyl-1,3,4-oxadiazol-2-yl)-N-(3-methylthieno[3,2-c]pyridin-4-yl)-N-[(3R)-3-piperidyl]pyridine-3-carboxamide], the IC50 was determined as 160 nM.

For the molecule `COCCn1cc(-c2ccc(C(=O)N(c3nccc4cc(F)cc(C)c34)[C@@H]3CCCNC3)cn2)nn1` [Example 920, N-(6-fluoro-8-methyl-1-isoquinolyl)-6-[1-(2-methoxyethyl)triazol-4-yl]-N-[(3R)-3-piperidyl]pyridine-3-carboxamide], the IC50 is 84 nM.

`COCCn1cc(-c2ccc(C(=O)N(c3nccc4cc(Cl)cc(C)c34)[C@@H]3CCCNC3)cn2)nn1` [Example 921, N-(6-chloro-8-methyl-1-isoquinolyl)-6-[1-(2-methoxyethyl)triazol-4-yl]-N-[(3R)-3-piperidyl]pyridine-3-carboxamide]: the IC50 is 52 nM.

Consider `Cc1cccc2ccnc(N(C(=O)c3ccc(-c4cncc5c4OCCC5)cc3)[C@@H]3CCCNC3)c12` [Example 922, (R)-4-(3,4-dihydro-2H-pyrano[3,2-c]pyridin-8-yl)-N-(8-methylisoquinolin-1-yl)-N-(piperidin-3-yl)benzamide], for which the IC50 is 420 nM.

`Cc1csc2ccnc(N(C(=O)c3ccc(-c4nnn5c4CN(C)CC5)cc3F)[C@@H]3CCCNC3)c12` [Example 923, 2-fluoro-4-(5-methyl-6,7-dihydro-4H-triazolo[1,5-a]pyrazin-3-yl)-N-(3-methylthieno[3,2-c]pyridin-4-yl)-N-[(3R)-3-piperidyl]benzamide]: the IC50 is more than 1000 nM.

For `Cc1cccnc1N(C(=O)c1ccc(Nc2ncccn2)cc1)[C@@H]1CCCNC1` [Example 924, (R)—N-(3-methylpyridin-2-yl)-N-(piperidin-3-yl)-4-(pyrimidin-2-ylamino)benzamide], the IC50 worked out at 85 nM.

As for `O=C(c1ccc(Nc2ncccn2)cc1)N(c1ncccc1Cl)[C@@H]1CCCNC1` [Example 925, (R)—N-(3-chloropyridin-2-yl)-N-(piperidin-3-yl)-4-(pyrimidin-2-ylamino)benzamide], the IC50 was 32 nM.

Regarding `Cn1ccc2ccnc(N(C(=O)c3ccc(Nc4ncccn4)cc3F)[C@@H]3CCCNC3)c21` [Example 926, (R)-2-fluoro-N-(1-methyl-1H-pyrrolo[2,3-c]pyridin-7-yl)-N-(piperidin-3-yl)-4-(pyrimidin-2-ylamino)benzamide], the IC50 worked out at 75 nM.

With `O=C(c1ccc(Nc2ncccn2)cc1F)N(c1nccc2ccccc12)[C@@H]1CCCNC1` [Example 927, (R)-2-fluoro-N-(isoquinolin-1-yl)-N-(piperidin-3-yl)-4-(pyrimidin-2-ylamino)benzamide], the IC50 worked out at 200 nM.

For `Cc1cccc2ccnc(N(C(=O)c3ccc(N(C)c4ncccn4)cc3F)[C@@H]3CCCNC3)c12` [Example 928, (R)-2-fluoro-4-(methyl(pyrimidin-2-yl)amino)-N-(8-methylisoquinolin-1-yl)-N-(piperidin-3-yl)benzamide], the 50% inhibitory concentration (IC50) was 250 nM.

With `COC(=O)c1cnc(Nc2ccc(C(=O)N(c3nccc4cccc(C)c34)[C@@H]3CCCNC3)c(F)c2)nc1` [Example 929, methyl (R)-2-((3-fluoro-4-((8-methylisoquinolin-1-yl)(piperidin-3-yl)carbamoyl)phenyl)amino)pyrimidine-5-carboxylate], the IC50 worked out at 110 nM.

Take `C=C(C)c1cccnc1N(C(=O)c1ccc(Nc2ncccn2)cc1F)[C@@H]1CCCNC1` [Example 930, (R)-2-fluoro-N-(piperidin-3-yl)-N-(3-(prop-1-en-2-yl)pyridin-2-yl)-4-(pyrimidin-2-ylamino)benzamide]: the IC50 worked out at 400 nM.

As for `Cc1cccc2ccnc(N(C(=O)c3ccc(Nc4nccc(-c5ccc6[nH]ncc6c5)n4)cc3F)[C@@H]3CCCNC3)c12` [Example 932, (R)-4-((4-(1H-indazol-5-yl)pyrimidin-2-yl)amino)-2-fluoro-N-(8-methylisoquinolin-1-yl)-N-(piperidin-3-yl)benzamide], the IC50 stood at 20 nM.

Still in this test, the particulars now being: MV-4-11 cells, 72 h, Cell-Titer Glo; read-out: IC50.
For the molecule `Cc1csc2ccnc(N(C(=O)c3ccc(Nc4ncccn4)cc3F)[C@@H]3CCCNC3)c12` [Example 931, (R)-2-fluoro-N-(3-methylthieno[3,2-c]pyridin-4-yl)-N-(piperidin-3-yl)-4-(pyrimidin-2-ylamino)benzamide], the IC50 amounted to 170 nM.

Values taken from patent US20240400555A1 (Initial Therapeutics, Inc., priority 2023, published 2024).
